{"source": "paper PMC7587601", "about": "“A Rose Extract Protects the Skin against Stress Mediators: A Potential Role of Olfactory Receptors” (Molecules, 2020)", "format_in_all_cases": "cell-based, human", "conditions_in_all_cases": "epinephrine 56 nM alone, 9 days", "key": {"[1]": {"tested_on": "loricrin", "assay": "Epinephrine-induced stress model in skin explants, loricrin immunostaining", "protocol": "(§1) To study the potential involvement of ORs in skin response to chronic stress, an ex vivo epinephrine-induced stress model was designed. Three different markers, known to increase under stress conditions, were measured to estimate the stress response of skin (Figure 3A). G6PDH was used as a marker for cell metabolism, loricrin for cell differentiation, and γH2AX for DNA damage.\n(§2) For immunohistochemical staining on human skin, 5-μm-thick sections were made. The same primary antibodies were used (anti-OR10A6 (1:200; Abcam, #ab129837), anti-OR11H4 (1:200; ThermoFisher, #PA5-562685), anti-OR2AG2 (1:100; ThermoFisher, #PA5-538166)). […] Image processing was performed using ImageJ 2.0 software. For primary G6PDH (1:100 dilution; Sigma Aldrich, St. Louis, MO, USA, #HPA000247), loricrine (1:1600 dilution; Covance, Princeton, NJ, USA, #PRB-145P), γH2AX (1:800; Abcam, Cambridge, UK, #ab26350) antibodies staining, tissue cryosections were […] and immunostaining was performed using an automated slide processing system (Autostainer Dako, Agilent, Santa Clara, CA, USA). […] Microscopical observations were realized using an Olympus BX43 microscope. Photographs were digitized with a numeric DP72 Olympus camera and CellD storing software (Waltham, MA, USA). The detailed protocols were described in the supplementary materials. […]"}, "[2]": {"tested_on": "OR2AG2 mRNA", "assay": "OR2AG2 mRNA expression in skin explants (RT-qPCR)", "protocol": "(§3) For NHEKs, total RNA was isolated and purified using RNeasy Mini Kit (Qiagen, Hilden, Germany, #74104) following the manufacturer’s protocol. For RNA extraction from skin sections, Trizol (ThermoFisher, Waltham, MA, USA, #15596026) was used following the manufacturer’s protocol. Purity was determined with commercial Agilent kit RNA 6000 Nano Kit (Agilent, Santa Clara, CA, USA, #5067-1511) using Agilent 2100 Bioanalyzer according to the manufacturer’s recommendations and the concentration was quantified with a Nanodrop 2000c (ThermoFisher, Waltham, MA, USA). Real-time quantitative polymerase chain reaction (qRT-PCR) was run in triplicate using TaqMan™ Fast Advanced Master Mix (ThermoFisher, Waltham, MA, USA, #4444557) and gene Expression Assay transcripts (ThermoFisher, Waltham, MA, USA) on the AriaMx Real-time PCR System (Agilent, Santa Clara, CA, USA) according to the manufacturer’s recommendations. Real-time quantification plots and Ct values were collected and stored in AriaMx software (version 2.1). […]\n(§4) Human skin explants were recovered from the abdominal tissue of a person and kept in a culture medium at 37 °C, under 5% CO2. […] Each condition was evaluated on 3 different explants and compared to control (untreated explant). […]\n(§5) System (Agilent) according to the manufacturer’s recommendations. Real-time quantification plots and Ct values were collected and stored in AriaMx software. […]"}, "[3]": {"tested_on": "OR11H4 protein", "assay": "OR11H4 protein expression in skin explants (immunohistochemistry)", "protocol": "(§6) For immunohistochemical staining on human skin, 5-μm-thick sections were made. The same primary antibodies were used (anti-OR10A6 (1:200; Abcam, #ab129837), anti-OR11H4 (1:200; ThermoFisher, #PA5-562685), anti-OR2AG2 (1:100; ThermoFisher, #PA5-538166)). […] Image processing was performed using ImageJ 2.0 software. […]\nas §4\n(§7) mounting medium (Santa Cruz, UltraCruz Mounting Medium # sc-24941). […] Cells were observed using a Zeiss microscope and images were analyzed with ImageJ 2.0 software. […]\n(§8) observations were realized using an Olympus BX43 microscope. […] Quantification of the proteins of interest (stained purple) was performed through microscopic observation and image analysis. Results were expressed as a percentage of untreated control explants. The relative change (Δ%) between the two tested conditions was also calculated. […]\n(§9) AlexaFluor 546 (ThermoFisher, #A11035) goat anti-rabbit IgG secondary antibody, diluted in 1:800 in PBS 1X with 1% BSA, for 1h at room temperature. […] The green channel was used to quantify the fluorescence resulting from OR labelling in the same region. […]"}, "[4]": {"tested_on": "OR10A6 mRNA", "assay": "OR10A6 mRNA expression in skin explants (RT-qPCR)", "protocol": "as §3, §4, §5"}, "[5]": {"tested_on": "OR10A6 protein", "assay": "OR10A6 protein expression in skin explants (immunohistochemistry)", "protocol": "as §6, §4, §7, §8, §9"}, "[6]": {"tested_on": "γH2AX", "assay": "Epinephrine-induced stress model in skin explants, γH2AX immunostaining", "protocol": "as §1, §2"}, "[7]": {"tested_on": "G6PDH", "assay": "Epinephrine-induced stress model in skin explants, G6PDH immunostaining", "protocol": "as §1, §2"}, "[8]": {"tested_on": "OR11H4 mRNA", "assay": "OR11H4 mRNA expression in skin explants (RT-qPCR)", "protocol": "as §3, §4, §5"}, "[9]": {"tested_on": "OR2AG2 protein", "assay": "OR2AG2 protein expression in skin explants (immunohistochemistry)", "protocol": "as §6, §4, §7, §8, §9"}}, "data": [{"compound": "CNC[C@H](O)c1ccc(O)c(O)c1", "note": "[epinephrine]", "values": [{"measurement": "loricrin expression, fold change", "setting": "[1]", "value": "2.3 ± 1.17"}, {"measurement": "OR2AG2 mRNA level, fold change", "setting": "[2]", "value": "0.51 ± 0.3"}, {"measurement": "OR11H4 protein expression", "setting": "[3]", "value": "No change"}, {"measurement": "OR10A6 mRNA level, fold change", "setting": "[4]", "value": "0.45 ± 0.2"}, {"measurement": "OR10A6 protein expression, relative intensity staining", "setting": "[5]", "value": "0.77 ± 0.34"}, {"measurement": "γH2AX expression, fold change", "setting": "[6]", "value": "1.7 ± 0.47"}, {"measurement": "G6PDH expression, fold change", "setting": "[7]", "value": "1.26 ± 0.19"}, {"measurement": "OR11H4 mRNA level, fold change", "setting": "[8]", "value": "0.52 ± 0.2"}, {"measurement": "OR2AG2 protein expression, relative intensity staining", "setting": "[9]", "value": "0.81 ± 0.15"}]}]}
